Measurements reported in patent US11286263B2, “Macrocyclic fluorine substituted indole derivatives” (The Broad Institute, Inc., priority 2017, dated 2022).
Counter-ions that a name gives are not always drawn. Like-named read-outs stand apart in the source and are kept apart here.

Legend:
MCL-1 = MCL-1 (Homo sapiens (Human), UniProt Q07820, K194A/K197A/R201A); assay: Protein-protein interaction assay MCL-1/Noxa BH3 peptide (MCL-1 assay), TR-FRET; assay type: binding; details: MCL-1/Noxa BH3 peptide TR-FRET; median
Chain of MCL-1 (Q07820 whole entry K194A/K197A/R201A, looked up): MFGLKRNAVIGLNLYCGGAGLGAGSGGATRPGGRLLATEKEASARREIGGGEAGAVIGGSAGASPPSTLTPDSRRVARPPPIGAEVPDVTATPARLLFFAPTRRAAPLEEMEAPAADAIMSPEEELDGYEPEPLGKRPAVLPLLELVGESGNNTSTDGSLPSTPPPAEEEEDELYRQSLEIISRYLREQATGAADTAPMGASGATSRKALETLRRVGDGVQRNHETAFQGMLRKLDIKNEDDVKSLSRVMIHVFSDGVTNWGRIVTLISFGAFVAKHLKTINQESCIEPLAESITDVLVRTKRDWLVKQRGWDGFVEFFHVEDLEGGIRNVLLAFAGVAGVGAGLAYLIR
Protocol: Protein-Protein Interaction Assay: MCL-1/Noxa BH3 Peptide (MCL-1 Assay)
The dose-dependent inhibition by the compounds described in this invention of the interaction between MCL-1 and the BH3 domain of Noxa (both human) was determined using a steady state binding competition assay with time-resolved fluorescence energy transfer (TR-FRET) readout. For that purpose MCL-1 (amino acids 173-321, N-terminal fused to Maltose Binding Protein (MBP) SEQ ID 1)) and a synthetic Noxa BH3-derived peptide of sequence Biotin-PEG2-PEG2-PAELEVE-Nva-ATQLRRFGDKLNFRQKLL-amide (SEQ ID 2) served as protein receptor and tracer ligand respectively. The MBP-MCL-1 was purchased from Beryllium (Bedford, Mass., USA). The expression and purification of this protein construct has been described elsewhere (DOI:10.1371/journal.pone.0125010). The Noxa BH3-derived peptide can be obtained from e.g. Biosyntan (Berlin, Germany).
In the assay 11 different concentrations of each compound (0.1 nM, 0.33 nM, 1.1 nM, 3.8 nM, 13 nM, 44 nM, 0.15 μM, 0.51 μM, 1.7 μM, 5.9 μM and 20 μM) were typically measured as duplicates in the same microtiter plate. For that, 100-fold concentrated DMSO solutions were prepared by serial dilutions (1:3.4) of a 2 mM stock solution in a clear, 384-well microtiter plate (Greiner Bio-One, Frickenhausen, Germany). From there, 50 nl were transferred in a dark test plate (Greiner Bio-One, Frickenhausen, Germany). The assay was initiated by addition of 2 μl of a 2,5-fold concentrated MBP-MCL-1 solution (usually for a 1 nM end concentration in 5 μl reaction volume) in aqueous assay buffer [50 mM Tris/HCl pH 7, 100 mM sodium chloride (NaCl), 50 mM potassium fluoride (KF), 0.005% Tween-20, 2 mM DTT, 0.1% bovine gamma globulin (BGG)] to the compounds in the assay plate. This was followed by a 10-minute incubation step at 22° C. for pre-equilibration of the putative complex between MBP-MCL-1 and the compounds. After that, 3 μl of a 1.67-fold concentrated solution (in assay buffer) consisting of Noxa BH3-derived peptide (1 nM end concentration) and TR-FRET detection reagents [1.67 nM anti-MBP-Eu cryptate and 1.67 nM streptavidin-XL665 (both from Cisbio Bioassays, Codolet, France)], were added.
The mixture was incubated in the dark for one hour at 22° C. and then overnight at 4° C. The formation of MCL-1/Noxa complexes was determined by measuring the resonance energy transfer of the anti-MBP-Eu-cryptate antibody to the streptavidin-XL665 present in the reaction. For that purpose, the fluorescence emission at 620 nm and 665 nm after excitation at 330-350 nm was measured in a TR-FRET measuring instrument, for instance a Rubystar or a Pherastar (both from BMG Lab Technologies, Offenburg, Germany) or a Viewlux (Perkin-Elmer). The ratio of the emission at 665 nm and at 622 nm was used as indicator of the amount of MCL-1/NOXA complexes present.
The resulting data (ratio) were normalized, taking 0% inhibition as the mean value of control measurements (usually 32 data points) where all reagents were included. In this case 50 nl DMSO were used instead of compounds. A 100% inhibition corresponded to the mean value of control measurements (usually 32 data points) where all reagents except MCL-1 were included. IC50 values were determined by regression analysis based on a 4 parameter equation (minimum, maximum, IC50, Hill; Y=Max+(Min−Max)/(1+(X/IC50)^Hill) using the Screener Software (Genedata).

MV-4-11 = assay: Antiproliferation assay MV-4-11 (Assay 7); assay type: cell-based; details: MV-4-11 cells, CellTiter-Glo, single determinations, read-out: IC50 Antiproli MV-4-11
Protocol: (§1) Assessment of the Anti-Proliferative Effect of Compounds in Different Cell Lines
(§2) The impact of compounds on the proliferation of different cell lines was assessed using the CellTiter-Glo® Luminescent Cell Viability reagent from Promega (G7573).
(§3) In parallel, cells were plated in a reference (day 0) plate for time zero determination.
(§4) Rim wells were excluded. The cells were incubated for 72 h hours in a humidified incubator at 37° C. The day 0 plate was measured by adding 30 μL/well of CTG solution (CellTiter-Glo® Luminescent Cell Viability reagent, Promega G7573) to time zero wells in the reference plate followed by a 10 minutes incubation and luminescence reading at 0.1 ms. using the PHERAstar FS microplate reader (BMG Labtech).
(§5) After 72 h incubation, the treated plates were measured in the same way as the day 0 plate mentioned above.

AMO-1 = assay: Antiproliferation assay AMO-1 (Assay 7); assay type: cell-based; details: AMO-1 cells, CellTiter-Glo, single determinations, read-out: IC50 Antiproli AMO-1
Protocol: as §1, §2, §3, §4, §5

SUDHL10 [1] = assay: Induction of cytotoxicity, SUDHL10 (Assay 6); details: read-out: IC50 Cytotox SUDHL10 [M] (median), SUDHL10 cells, 5 h, CellTiter-Glo
SUDHL5 [2] = assay: Antiproliferation assay SUDHL5 (Assay 7); assay type: cell-based
Protocol: as §1, §2, §3, §4, §5

SUDHL5 [3] = assay: Induction of caspase-3/7 activity, SUDHL5 (Assay 4); assay type: cell-based
Protocol: (§6) Induction of Caspase-3/7 Activity upon Treatment of Cells with Selected Compounds
(§7) The BH3-domain of MCL-1 sequesters pro-apoptotic proteins, thereby inhibiting apoptosis. In contrast, MCL-1 inhibitors are expected to antagonize this effect leading to an increase in apoptosis, which can be determined by measuring the activity of caspase-3/7.
(§8) The activity of caspase-3/7 was determined in DLBCL (Diffuse large B-cell lymphoma) cell lines (SUDHL5 and SUDHL10) upon treatment with different compounds, using the Caspase-Glo® 3/7 reagent from Promega (G8092).
(§9) Rim wells were excluded. The cells were incubated for 3 h hours in a humidified incubator at 37° C.
(§10) For the evaluation of the results, the background measured with “medium-only” was subtracted from all other values. […] The Bella DRC Master Sheet was used to calculate EC50s, with fixed C0=1 and Cl=plateau/max induction for the reference compound.

SUDHL10 [4] = assay: Induction of caspase-3/7 activity, SUDHL10 (Assay 4); assay type: cell-based
Protocol: as §6, §7, §8, §9, §10

SUDHL5 [5] = assay: Induction of cytotoxicity, SUDHL5 (Assay 6); details: read-out: IC50 Cytotox SUDHL5 [M] (median), SUDHL5 cells, 5 h, CellTiter-Glo
A2780 = assay: Antiproliferation assay A2780 (Assay 7); assay type: cell-based; details: A2780 cells, CellTiter-Glo, single determinations, read-out: IC50 Antiproli A2780
Protocol: as §1, §2, §3, §4, §5

[6] = 72 h, trifluoroacetic acid salt
[7] = SUDHL5 cells, 72 h, CellTiter-Glo; median; read-out: IC50 Antiproli SUDHL5 [M] (median)
[8] = SUDHL5 cells, 3 h, Caspase-Glo 3/7; median
[9] = SUDHL10 cells, 3 h, Caspase-Glo 3/7; median

SMILES	IC50 (MCL-1)	IC50 (MV-4-11; Homo sapiens, MV4-11, 72 h)	IC50 (MV-4-11; 72 h)	IC50 (AMO-1; 72 h)	IC50 (SUDHL10 [1]; Homo sapiens, SU-DHL10, 5 h)	IC50 (SUDHL5 [5]; Homo sapiens, SU-DHL-5, 5 h)	IC50 (SUDHL5 [2]; [7])	EC50 (SUDHL5 [3]; [8])	IC50 (SUDHL5 [5])	IC50 (SUDHL10 [1])	EC50 (SUDHL10 [4]; [9])	further results
CCc1nn(C)c2c1-c1c(F)ccc3c(CCCOc4ccc(F)c5ccccc45)c(C(=O)O)n(c13)CCCCOC2 (racemic) [Example 41, (rac)-12-ethyl-13-fluoro-1-(3-((4-fluoronaphthalen-1-yl)oxy)propyl)-10-methyl-4,5,6,7,9,10-hexahydropyrazolo[4′,3′:9,10][1]oxa[6]azacycloundecino[8,7,6-hi]indole-2-carboxylic acid]	0.002 µM	11 µM	15 µM	12.8 µM	7.1e-06 M	3e-06 M	–	–	–	–	–	IC50 (AMO-1; Homo sapiens, AMO1, 72 h): 15.2 µM; IC50 (SUDHL5 [2]; Homo sapiens, SU-DHL-5, 72 h, SUDHL5 cells, CellTiter-Glo, median, read-out: IC50 Antiproli SUDHL5 [M] (median)): 2e-06 M; EC50 (SUDHL5 [3]; Homo sapiens, SU-DHL-5, 3 h, SUDHL5 cells, Caspase-Glo 3/7, median): 2.2 µM; EC50 (SUDHL10 [4]; Homo sapiens, SU-DHL10, 3 h, SUDHL10 cells, Caspase-Glo 3/7, median): 14 µM
Cc1c2c(nn1C)CNCCCCn1c(C(=O)O)c(CCCOc3cccc4ccccc34)c3ccc(F)c-2c31 (racemic) [Example 47, (rac)-4-fluoro-2,3-dimethyl-7-[3-(1-naphthyloxy)propyl]-10,11,12,13,14,15-hexahydro-2H-pyrazolo[3′,4′:8,9][1,6]diazacycloundecino[10,11,1-hi]indole-8-carboxylic acid trifluoroacetic acid salt]	0.00082 µM	1.02 µM	–	–	5.6e-06 M	2.2e-06 M	–	–	–	–	–	IC50 (MV-4-11; [6]): 1.32 µM; IC50 (SUDHL5 [2]; Homo sapiens, SU-DHL-5; SUDHL5 cells, 72 h, CellTiter-Glo; median; read-out: IC50 Antiproli SUDHL5 [M] (median)): 2.1e-06 M; EC50 (SUDHL5 [3]; Homo sapiens, SU-DHL-5; SUDHL5 cells, 3 h, Caspase-Glo 3/7; median): 1.4 µM; EC50 (SUDHL10 [4]; Homo sapiens, SU-DHL10; SUDHL10 cells, 3 h, Caspase-Glo 3/7; median): 5 µM; IC50 (A2780; [6]): 18.9 µM; IC50 (A2780; Homo sapiens, A2780, 72 h): 20.9 µM
Cc1c2c(nn1C)COCCCCn1c(C(=O)O)c(CCCOc3cccc4ccccc34)c3ccc(F)c-2c31 (single isomer, unassigned; enantiomer 2) [Example 4, 4-fluoro-2,3-dimethyl-7-[3-(naphthalen-1-yloxy)propyl]-2,10,11,12,13,15-hexahydropyrazolo-[4′,3′:9,10][1,6]oxazacycloundecino[8,7,6-hi]indole-8-carboxylic acid-N-ethylethanamine salt (enantiomer 2)]	0.065 µM	–	–	–	–	–	> 3.3e-05 M	> 33 µM	> 3.3e-05 M	–	–	IC50 (MV-4-11; 72 h, listed as 04): > 33 µM; IC50 (A2780; 72 h, listed as 04): > 33 µM
Cc1c2c(nn1C)COCCCCn1c(C(=O)O)c(CCCOc3ccc(F)c4ccccc34)c3ccc(F)c-2c31 (single isomer, unassigned; enantiomer 2) [Example 17, 4-fluoro-7-{3-[(4-fluoronaphthalen-1-yl)oxy]propyl}-2,3-dimethyl-2,10,11,12,13,15-hexahydro-pyrazolo[4′,3′:9,10][1,6]oxazacycloundecino[8,7,6-hi]indole-8-carboxylic acid (enantiomer 2)]	0.06 µM	–	20.8 µM	> 33 µM	–	–	1.1e-05 M	> 33 µM	> 3.3e-05 M	> 3.3e-05 M	> 33 µM	–
CCc1c2c(nn1C)COCCCCn1c(C(=O)O)c(CCCOc3ccc(F)c4ccccc34)c3ccc(F)c-2c31 (single isomer, unassigned; enantiomer 2) [Example 28, 3-ethyl-4-fluoro-7-{3-[(4-fluoronaphthalen-1-yl)oxy]propyl}-2-methyl-2,10,11,12,13,15-hexahydropyrazolo[4′,3′:9,10][1,6]oxazacycloundecino[8,7,6-hi]indole-8-carboxylic acid-N-ethylethanamine salt (enantiomer 2)]	0.065 µM	–	13.8 µM	> 33 µM	–	–	1.2e-05 M	> 33 µM	1.8e-05 M	> 3.3e-05 M	> 33 µM	–
CCc1nn(C)c2c1-c1c(F)ccc3c(CCCOc4ccc(F)c5ccccc45)c(C(=O)O)n(c13)CCCCOC2 (single isomer, unassigned; enantiomer 2) [Example 43, 3-ethyl-4-fluoro-7-{3-[(4-fluoronaphthalen-1-yl)oxy]propyl}-1-methyl-1,10,11,12,13,15-hexahydropyrazolo[4′,3′:9,10][1,6]oxazacycloundecino[8,7,6-hi]indole-8-carboxylic acid (enantiomer 2)]	0.11 µM	–	12.5 µM	> 33 µM	–	–	1.5e-05 M	> 33 µM	> 3.3e-05 M	> 3.3e-05 M	> 33 µM	–
